Assay [1] concerns the target T1, human Cav3.2 T-type Ca2+ channel (Homo sapiens, UniProt O95180).
T1 construct: expressed in transfected cells; host or cells: KJMGER8 cells (Namalwa cell-derived cell line)
Briefly: Inhibitory effect for intracellular calcium response via Cav3.2 T-type Ca2+ channels (FLIPR Calcium 3 Assay Kit). The format is cell-based.

Assay [2] concerns morphine-induced pruritus mice. Briefly: Inhibitory effect for pruritus in morphine-induced pruritus mice. It is filed as in vivo, male ddY mice. As to conditions: oral, dose of 30 mg/kg or less, 30 minutes before intrathecal morphine (1 nmol/5 μL); scratching counted for 30 minutes. How it is done: Morphine (1 nmol/5 μL, dissolved in physiological saline) or physiological saline was intrathecally administered between the fifth and sixth lumbar vertebrae of male ddY mice using a microsyringe fitted with a 30-gauge injection needle. Mice administered with only morphine were used as a control group, and mice administered with only physiological saline as a physiological saline-administered group.
After the morphine administration, the number of scratching behavior with the hind legs which observed immediately in the mice was measured for 30 minutes. Because mice show a rapid, continuous scratching behavior in each scratching behavior, a series of such behavior was counted as a single scratching behavior.
The test compounds were administered 30 minutes before the morphine administration. Each test compound was suspended in a 0.5% methylcellulose solution, and orally administered in 10 mL/kg volume.

Where [3] appears, read: human Cav3.2-expressing KJMGER8 cells (Namalwa-derived), calcium response induced by 5 mmol/L CaCl2, normalised to 3 μmol/L mibefradil, read-out: IC50 for the human Cav3.2 T-type Ca2+ current.

Consider 13 compounds from US9000186B2, “Ring-fused heterocyclic derivative” (Kyowa Hakko Kirin Co., Ltd., priority 2011, dated 2015).

Each structure is given as a SMILES string. Read-outs that look alike come from different tables or passages of the source.

T1 sequence (O95180 whole entry): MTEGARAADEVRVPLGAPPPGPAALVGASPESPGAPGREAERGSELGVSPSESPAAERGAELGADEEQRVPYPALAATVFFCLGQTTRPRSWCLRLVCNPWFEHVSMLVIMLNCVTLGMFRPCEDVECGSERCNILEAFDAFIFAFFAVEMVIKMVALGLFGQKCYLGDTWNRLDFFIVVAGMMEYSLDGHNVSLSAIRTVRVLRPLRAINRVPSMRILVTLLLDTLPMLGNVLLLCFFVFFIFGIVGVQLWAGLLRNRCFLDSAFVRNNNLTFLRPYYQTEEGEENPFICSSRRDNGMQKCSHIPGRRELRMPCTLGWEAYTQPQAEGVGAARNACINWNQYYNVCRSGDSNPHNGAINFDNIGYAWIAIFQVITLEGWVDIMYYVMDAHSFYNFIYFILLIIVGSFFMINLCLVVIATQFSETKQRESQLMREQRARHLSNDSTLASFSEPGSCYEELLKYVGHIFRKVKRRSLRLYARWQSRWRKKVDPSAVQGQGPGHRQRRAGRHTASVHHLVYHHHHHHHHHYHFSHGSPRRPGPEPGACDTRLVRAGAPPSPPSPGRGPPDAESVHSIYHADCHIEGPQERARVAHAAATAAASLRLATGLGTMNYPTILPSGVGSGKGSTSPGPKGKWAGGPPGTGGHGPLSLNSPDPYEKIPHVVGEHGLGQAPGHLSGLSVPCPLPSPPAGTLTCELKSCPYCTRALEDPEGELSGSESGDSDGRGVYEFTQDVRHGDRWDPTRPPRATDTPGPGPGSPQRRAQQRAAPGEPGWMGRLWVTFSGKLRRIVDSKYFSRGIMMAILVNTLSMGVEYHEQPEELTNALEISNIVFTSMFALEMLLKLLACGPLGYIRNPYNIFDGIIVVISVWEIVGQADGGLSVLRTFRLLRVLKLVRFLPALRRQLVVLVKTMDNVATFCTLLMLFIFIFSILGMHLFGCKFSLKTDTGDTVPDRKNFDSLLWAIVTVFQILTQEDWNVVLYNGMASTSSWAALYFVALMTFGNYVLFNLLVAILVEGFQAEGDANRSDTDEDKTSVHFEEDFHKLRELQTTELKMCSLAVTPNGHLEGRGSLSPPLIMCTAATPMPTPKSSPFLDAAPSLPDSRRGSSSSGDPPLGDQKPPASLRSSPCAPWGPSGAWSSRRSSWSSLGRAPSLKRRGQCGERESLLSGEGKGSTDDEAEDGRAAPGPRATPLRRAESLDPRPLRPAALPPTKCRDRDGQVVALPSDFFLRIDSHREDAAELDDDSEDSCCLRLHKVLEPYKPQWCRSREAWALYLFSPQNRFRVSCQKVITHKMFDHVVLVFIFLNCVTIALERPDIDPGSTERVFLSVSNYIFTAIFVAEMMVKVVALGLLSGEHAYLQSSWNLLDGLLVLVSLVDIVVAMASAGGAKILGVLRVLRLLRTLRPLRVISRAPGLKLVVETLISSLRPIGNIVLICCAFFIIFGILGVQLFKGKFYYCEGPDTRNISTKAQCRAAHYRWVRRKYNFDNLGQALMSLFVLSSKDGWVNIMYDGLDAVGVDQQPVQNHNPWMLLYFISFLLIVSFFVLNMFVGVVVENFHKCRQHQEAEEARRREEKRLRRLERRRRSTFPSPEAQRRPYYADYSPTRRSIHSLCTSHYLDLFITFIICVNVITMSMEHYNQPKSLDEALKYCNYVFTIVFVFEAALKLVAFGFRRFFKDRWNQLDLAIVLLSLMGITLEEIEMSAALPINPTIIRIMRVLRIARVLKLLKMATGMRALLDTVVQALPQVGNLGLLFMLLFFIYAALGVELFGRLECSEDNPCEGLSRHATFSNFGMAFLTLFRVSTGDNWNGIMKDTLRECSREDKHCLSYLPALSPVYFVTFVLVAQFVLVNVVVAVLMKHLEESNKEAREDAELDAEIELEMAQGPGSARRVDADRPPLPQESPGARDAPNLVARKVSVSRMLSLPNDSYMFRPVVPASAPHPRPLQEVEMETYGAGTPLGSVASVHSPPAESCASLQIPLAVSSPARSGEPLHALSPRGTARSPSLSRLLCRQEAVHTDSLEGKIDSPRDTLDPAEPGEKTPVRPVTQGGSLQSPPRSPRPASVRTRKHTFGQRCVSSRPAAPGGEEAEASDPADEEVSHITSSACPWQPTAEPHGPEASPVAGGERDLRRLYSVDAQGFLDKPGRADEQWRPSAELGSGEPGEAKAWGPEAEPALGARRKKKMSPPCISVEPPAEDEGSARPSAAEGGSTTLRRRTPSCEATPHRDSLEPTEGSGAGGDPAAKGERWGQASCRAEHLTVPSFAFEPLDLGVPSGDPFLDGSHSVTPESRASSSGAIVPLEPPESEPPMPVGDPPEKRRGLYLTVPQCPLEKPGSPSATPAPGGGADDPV

As a reminder, the IC50 is the point on the concentration scale where inhibition reaches its midpoint. On to `O=C(N[C@H]1CC[C@H](O)CC1)c1cc(Cl)n2c(CC3CCC(F)(F)CC3)c(C(F)(F)F)nc2c1` [Compound 103, 5-Chloro-3-(4,4-difluorocyclohexylmethyl)-N-(trans-4-hydroxycyclohexyl)-2-trifluoromethylimidazo[1,2-a]pyridine-7-carboxamide], for which the IC50 in assay [1] was under 100 nM. Besides, the “increase of the scratching behavior observed in the morphine-induced pruritus mice” value (“increase” below) in assay [2] was “inhibited”.

Turning to `O=C(NC1CCOCC1)c1cc(Cl)n2c(CC3CCC(F)(F)CC3)c(C(F)(F)F)nc2c1` [Compound 104, 5-Chloro-3-(4,4-difluorocyclohexylmethyl)-N-(tetrahydro-2H-pyran-4-yl)-2-trifluoromethylimidazo[1,2-a]pyridine-7-carboxamide], in assay [1], the IC50 is under 100 nM. The “increase” value in assay [2] was “inhibited”.

On to `CC1(C)CC(NC(=O)c2cc(Cl)n3c(CC4CCC(F)(F)CC4)c(C(F)(F)F)nc3c2)CCO1` (centres unmarked) [Compound 105, 5-Chloro-3-(4,4-difluorocyclohexylmethyl)-N-(2,2-dimethyltetrahydro-2H-pyran-4-yl)-2-trifluoromethylimidazo[1,2-a]pyridine-7-carboxamide], for which the IC50 in assay [1] was under 100 nM. In addition, in assay [2], the “increase” value was “inhibited”.

With `O=C(NC1CCOCC1)c1cc2nc(C(F)(F)F)c(CC3CCC(F)(F)CC3)n2cc1Cl` [Compound 108, 6-Chloro-3-(4,4-difluorocyclohexylmethyl)-N-(tetrahydro-2H-pyran-4-yl)-2-trifluoromethylimidazo[1,2-a]pyridine-7-carboxamide], the IC50 in assay [1] is under 100 nM. Besides, the “increase” value in assay [2] is recorded as “inhibited”.

Take `CC(F)(F)c1nc2cc(C(=O)NC3CCOCC3)c(Cl)cn2c1CC1CCC(F)(F)CC1` [Compound 109, 6-Chloro-3-(4,4-difluorocyclohexylmethyl)-2-(1,1-difluoroethyl)-N-(tetrahydro-2H-pyran-4-yl)imidazo[1,2-a]pyridine-7-carboxamide]: in assay [1], the IC50 was under 100 nM. In assay [2], the “increase” value is recorded as “inhibited”.

In the case of `O=C(NC1CCOCC1)c1cc2nc(C3(C(F)(F)F)CC3)c(CC3CCC(F)(F)CC3)n2cc1Cl` [Compound 110, 6-Chloro-3-(4,4-difluorocyclohexylmethyl)-N-(tetrahydro-2H-pyran-4-yl)-2-{1-(trifluoromethyl)cyclopropyl}imidazo[1,2-a]pyridine-7-carboxamide], in assay [1], the IC50 was under 100 nM. In addition, the “increase” value in assay [2] is listed as “inhibited”.

On to `CC(C)c1nc2cc(C(=O)NC3CCOCC3)c(Cl)cn2c1CC1CCC(F)(F)CC1` [Compound 111, 6-Chloro-3-(4,4-difluorocyclohexylmethyl)-2-isopropyl-N-(tetrahydro-2H-pyran-4-yl)imidazo[1,2-a]pyridine-7-carboxamide], for which the IC50 in assay [1] is under 100 nM. Further, the “increase” value in assay [2] was “inhibited”.

For the compound `CC(C)(C)c1nc2cc(C(=O)NC3CCOCC3)c(Cl)cn2c1CC1CCC(F)(F)CC1` [Compound 113, 2-tert-Butyl-6-chloro-3-(4,4-difluorocyclohexylmethyl)-N-(tetrahydro-2H-pyran-4-yl)imidazo[1,2-a]pyridine-7-carboxamide], the IC50 in assay [1] was under 100 nM. Besides, the “increase” value in assay [2] is “inhibited”.

Consider `CC1(c2nc3cc(C(=O)NC4CCOCC4)c(Cl)cn3c2CC2CCC(F)(F)CC2)CC1` [Compound 114, 6-Chloro-3-(4,4-difluorocyclohexylmethyl)-2-(1-methylcyclopropyl)-N-(tetrahydro-2H-pyran-4-yl)imidazo[1,2-a]pyridine-7-carboxamide], for which the IC50 in assay [1] (setting [3]) was under 100 nM. Further, the “increase” value in assay [2] was “inhibited”.

With `O=C(Nc1ccn2c(CC3CCC(F)(F)CC3)c(C(F)(F)F)nc2c1)c1ccccc1` [Compound 126, N-{3-(4,4-Difluorocyclohexylmethyl)-2-trifluoromethylimidazo[1,2-a]pyridin-7-yl}benzamide], the IC50 in assay [1] is under 100 nM. Besides, in assay [2], the “increase” value is recorded as “inhibited”.

Consider `CC(C)c1nc2cc(C(=O)Nc3ccccc3)ccn2c1S(=O)(=O)N1CC(F)(F)C1` [Compound 133, 3-(3,3-Difluoroazetidin-1-ylsulfonyl)-2-isopropyl-N-phenylimidazo[1,2-a]pyridine-7-carboxamide], for which the IC50 in assay [1] (setting [3]) is under 100 nM. For the same compound, in assay [2], the “increase” value was “inhibited”.

As for `Cc1cc(NC(=O)c2cc3nc(C(C)C)c(S(=O)(=O)N4CC(F)(F)C4)n3cc2Cl)on1` [Compound 148, 6-Chloro-3-(3,3-difluoroazetidin-1-ylsulfonyl)-2-isopropyl-N-(3-methylisooxazol-5-yl)imidazo[1,2-a]pyridine-7-carboxamide], the IC50 in assay [1] (setting [3]) is under 100 nM. Besides, the “increase” value in assay [2] is “inhibited”.

With `CC(C)(O)CNC(=O)c1cc(Cl)n2c(CC3CCC(F)(F)CC3)c(C(F)(F)F)nc2c1` [Compound 182, 5-Chloro-3-(4,4-difluorocyclohexylmethyl)-N-(2-hydroxy-2-methylpropyl)-2-trifluoromethylimidazo[1,2-a]pyridine-7-carboxamide], in assay [1], the IC50 was under 100 nM. The “increase” value in assay [2] is “inhibited”.
